Source: PubChem BioAssay AID256 (DTP/NCI, 2004)
Toxic doses and inconclusive results are not listed. How the source made its calls: active means survival T/C of 150% or more; inactive means T/C below 125% in these data. Residues, ends and D or L forms follow the SMILES beside them. *: point of attachment. Cbz = O=C(OCc1ccccc1)*; OBn = c1ccc(CO*)cc1

Test system: CD2F1 mice, L1210 leukemia ip, survival T/C
Experiment: NCI In Vivo Anticancer Drug Screen. Data for tumor model L1210 Leukemia (intraperitoneal) in CD2F1 (CDF1) mice
Details: higher = longer survival
Summary of the method: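 In this screen, transplantable tumors were grown in mice given either the compound or its vehicle. Results were expressed as the treated measurement relative to the control measurement.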

[1] = endpoint: mean survival time, dose: 100.0 mg/kg/injection, schedule: Q01DX001 (ip), vehicle: saline
[2] = endpoint: mean survival time, dose: 200.0 mg/kg/injection, schedule: Q01DX001 (ip), vehicle: saline
[3] = endpoint: mean survival time, dose: 100.0 mg/kg/injection, schedule: Q04DX003 (ip), vehicle: saline with Tween-80
[4] = endpoint: mean survival time, dose: 200.0 mg/kg/injection, schedule: Q04DX003 (ip), vehicle: saline with Tween-80
[5] = endpoint: mean survival time, dose: 400.0 mg/kg/injection, schedule: Q04DX003 (ip), vehicle: saline with Tween-80
[6] = endpoint: mean survival time, dose: 400.0 mg/kg/injection, schedule: Q01DX001 (ip), vehicle: saline
[7] = endpoint: mean survival time, dose: 100.0 mg/kg/injection, schedule: Q01DX009 (ip), vehicle: saline with Tween-80
[8] = endpoint: mean survival time, dose: 200.0 mg/kg/injection, schedule: Q01DX009 (ip), vehicle: saline with Tween-80
[9] = endpoint: mean survival time, dose: 400.0 mg/kg/injection, schedule: Q01DX009 (ip), vehicle: saline with Tween-80

Measured: T/C

CNC(=O)CCC(NC(=O)c1ccc(N(C)Cc2cnc3nc(N)nc(N)c3n2)cc1)C(=O)O (stereo unspecified)
inactive: endpoint: mean survival time, dose: 1.0 mg/kg/injection, schedule: Q01DX009 (ip), vehicle: sodium bicarbonate 103 % of control | endpoint: mean survival time, dose: 10.0 mg/kg/injection, schedule: Q01DX009 (ip), vehicle: sodium bicarbonate 113 % of control | endpoint: mean survival time, dose: 25.0 mg/kg/injection, schedule: Q01DX009 (ip), vehicle: sodium bicarbonate 121 % of control

CN1CC(C(=O)NC2CCCCC2)CC2c3cccc4[nH]cc(c34)CC21 (stereo unspecified)
inactive: endpoint: mean survival time, dose: 50.0 mg/kg/injection, schedule: Q04DX003 (ip), vehicle: saline 96 % of control | endpoint: mean survival time, dose: 100.0 mg/kg/injection, schedule: Q04DX003 (ip), vehicle: saline 92 % of control | endpoint: mean survival time, dose: 200.0 mg/kg/injection, schedule: Q04DX003 (ip), vehicle: saline 102 % of control

CN(C)c1ccc(/C=N/N=C(/N)N[N+](=O)[O-])cc1
inactive: [1] 94 % of control | [2] 97 % of control

c1ccc([P+](c2ccccc2)(c2ccccc2)C2OCCO2)cc1
inactive: endpoint: mean survival time, dose: 100.0 mg/kg/injection, schedule: Q01DX001 (ip), vehicle: saline with Tween-80 112 % of control

COC(=O)C1N=C1c1ccccc1.COC(=O)C1N=C1c1ccccc1.[Cl][Pd][Cl] (stereo unspecified)
inactive: endpoint: mean survival time, dose: 3.13 mg/kg/injection, schedule: Q04DX003 (ip), vehicle: distilled water + Tween-80 95 % of control | endpoint: mean survival time, dose: 6.25 mg/kg/injection, schedule: Q04DX003 (ip), vehicle: distilled water + Tween-80 103 % of control | endpoint: mean survival time, dose: 12.5 mg/kg/injection, schedule: Q04DX003 (ip), vehicle: distilled water + Tween-80 91 % of control | endpoint: mean survival time, dose: 25.0 mg/kg/injection, schedule: Q04DX003 (ip), vehicle: distilled water + Tween-80 103 % of control | endpoint: mean survival time, dose: 50.0 mg/kg/injection, schedule: Q04DX003 (ip), vehicle: distilled water + Tween-80 101 % of control | endpoint: mean survival time, dose: 100.0 mg/kg/injection, schedule: Q04DX003 (ip), vehicle: distilled water + Tween-80 101 % of control | endpoint: mean survival time, dose: 200.0 mg/kg/injection, schedule: Q04DX003 (ip), vehicle: distilled water + Tween-80 103 % of control

CCC12NC(=O)NC1(C)NC(=O)N2 (stereo unspecified)
inactive: endpoint: mean survival time, dose: 6.25 mg/kg/injection, schedule: Q01DX009 (ip), vehicle: saline with Tween-80 95 % of control | endpoint: mean survival time, dose: 6.25 mg/kg/injection, schedule: Q04DX003 (ip), vehicle: saline with Tween-80 102 % of control | endpoint: mean survival time, dose: 12.5 mg/kg/injection, schedule: Q01DX009 (ip), vehicle: saline with Tween-80 95 % of control | endpoint: mean survival time, dose: 12.5 mg/kg/injection, schedule: Q04DX003 (ip), vehicle: saline with Tween-80 106 % of control | endpoint: mean survival time, dose: 25.0 mg/kg/injection, schedule: Q01DX009 (ip), vehicle: saline with Tween-80 93 % of control | endpoint: mean survival time, dose: 25.0 mg/kg/injection, schedule: Q04DX003 (ip), vehicle: saline with Tween-80 110 % of control

CC(C)(C)OC(=O)NCCCC(N)C(=O)O (stereo unspecified)
inactive: [3] 92 % of control | [4] 94 % of control | [5] 94 % of control

O=C(O)CS(=O)(=O)c1ccc(Cl)cc1
inactive: endpoint: mean survival time, dose: 100.0 mg/kg/injection, schedule: Q01DX001 (ip), vehicle: Klucel (hydroxypropylcellulose) (HPC) 111 % of control | endpoint: mean survival time, dose: 200.0 mg/kg/injection, schedule: Q01DX001 (ip), vehicle: Klucel (hydroxypropylcellulose) (HPC) 103 % of control | endpoint: mean survival time, dose: 400.0 mg/kg/injection, schedule: Q01DX001 (ip), vehicle: Klucel (hydroxypropylcellulose) (HPC) 100 % of control

O=C1C=CC(=NCl)C=C1
inactive: endpoint: mean survival time, dose: 2.5 mg/kg/injection, schedule: Q04DX003 (ip), vehicle: saline with Tween-80 100 % of control | endpoint: mean survival time, dose: 5.0 mg/kg/injection, schedule: Q04DX003 (ip), vehicle: saline with Tween-80 110 % of control

NC(=O)Cc1c(Cl)n(-c2ccccc2)c2ccccc12
inactive: endpoint: mean survival time, dose: 50.0 mg/kg/injection, schedule: Q04DX003 (ip), vehicle: Klucel (hydroxypropylcellulose) (HPC) 95 % of control | endpoint: mean survival time, dose: 100.0 mg/kg/injection, schedule: Q04DX003 (ip), vehicle: Klucel (hydroxypropylcellulose) (HPC) 102 % of control | endpoint: mean survival time, dose: 200.0 mg/kg/injection, schedule: Q04DX003 (ip), vehicle: Klucel (hydroxypropylcellulose) (HPC) 95 % of control

O=CC(C=O)[N+](=O)[O-]
inactive: [1] 103 % of control | [2] 103 % of control | [6] 97 % of control

C=C1CC(C)(Cn2cnc3c(=O)[nH]cnc32)OC1=O (stereo unspecified)
inactive: endpoint: median survival time, dose: 3.13 mg/kg/injection, schedule: Q01DX005 (ip), vehicle: water 94 % of control | endpoint: median survival time, dose: 6.25 mg/kg/injection, schedule: Q01DX005 (ip), vehicle: water 94 % of control | endpoint: median survival time, dose: 12.5 mg/kg/injection, schedule: Q01DX005 (ip), vehicle: water 98 % of control | endpoint: median survival time, dose: 25.0 mg/kg/injection, schedule: Q01DX005 (ip), vehicle: water 92 % of control

CC[N+](CC)(CC)Cc1ccccc1
inactive: endpoint: mean survival time, dose: 10.0 mg/kg/injection, schedule: Q04DX003 (ip), vehicle: saline with Tween-80 105 % of control | endpoint: mean survival time, dose: 20.0 mg/kg/injection, schedule: Q04DX003 (ip), vehicle: saline with Tween-80 94 % of control | endpoint: mean survival time, dose: 40.0 mg/kg/injection, schedule: Q04DX003 (ip), vehicle: saline with Tween-80 98 % of control

O=C(Nc1ccc(F)cc1)c1cccc(Cl)c1
inactive: [7] 98 % of control | [3] 94 % of control | [8] 90 % of control | [4] 94 % of control | [9] 96 % of control | [5] 95 % of control

OC(c1ccccc1)c1ccccn1 (stereo unspecified)
inactive: endpoint: mean survival time, dose: 100.0 mg/kg/injection, schedule: Q04DX003 (ip), vehicle: other 93 % of control | endpoint: mean survival time, dose: 200.0 mg/kg/injection, schedule: Q04DX003 (ip), vehicle: other 98 % of control | endpoint: mean survival time, dose: 400.0 mg/kg/injection, schedule: Q04DX003 (ip), vehicle: other 98 % of control

Cc1ccc(NCC2(/N=C/c3ccccc3)OC(CO)C(O)C2O)cc1 (stereo unspecified)
inactive: endpoint: mean survival time, dose: 100.0 mg/kg/injection, schedule: Q01DX009 (ip), vehicle: Klucel (hydroxypropylcellulose) (HPC) 109 % of control | endpoint: mean survival time, dose: 177.0 mg/kg/injection, schedule: Q01DX009 (ip), vehicle: saline with Tween-80 113 % of control | endpoint: mean survival time, dose: 200.0 mg/kg/injection, schedule: Q01DX009 (ip), vehicle: Klucel (hydroxypropylcellulose) (HPC) 118 % of control | endpoint: mean survival time, dose: 266.0 mg/kg/injection, schedule: Q01DX009 (ip), vehicle: Klucel (hydroxypropylcellulose) (HPC) 120 % of control

CCCN(CCC)S(=O)(=O)c1ccc(NC(=O)OC(c2ccccc2)c2ccccc2)cc1
inactive: [1] 104 % of control | [2] 95 % of control | [6] 93 % of control

CCCCCCCCCc1nc(N)nc(N)n1
inactive: endpoint: mean survival time, dose: 50.0 mg/kg/injection, schedule: Q01DX009 (ip), vehicle: saline with Tween-80 104 % of control | [7] 104 % of control | [8] 104 % of control

Nc1nc(N)c2c(n1)NCN(CCc1ccccc1Cl)C2
inactive: endpoint: mean survival time, dose: 0.75 mg/kg/injection, schedule: Q01DX009 (ip), vehicle: distilled water + Tween-80 93 % of control | endpoint: mean survival time, dose: 1.5 mg/kg/injection, schedule: Q01DX009 (ip), vehicle: distilled water + Tween-80 98 % of control | endpoint: mean survival time, dose: 3.0 mg/kg/injection, schedule: Q01DX009 (ip), vehicle: distilled water + Tween-80 94 % of control | endpoint: mean survival time, dose: 6.0 mg/kg/injection, schedule: Q01DX009 (ip), vehicle: distilled water + Tween-80 100 % of control | endpoint: mean survival time, dose: 12.0 mg/kg/injection, schedule: Q01DX009 (ip), vehicle: distilled water + Tween-80 94 % of control | endpoint: mean survival time, dose: 24.0 mg/kg/injection, schedule: Q01DX009 (ip), vehicle: distilled water + Tween-80 102 % of control | endpoint: mean survival time, dose: 48.0 mg/kg/injection, schedule: Q01DX009 (ip), vehicle: distilled water + Tween-80 96 % of control | endpoint: mean survival time, dose: 80.0 mg/kg/injection, schedule: Q01DX009 (ip), vehicle: distilled water + Tween-80 96 % of control

O=C(CNC(=O)OCc1ccccc1)NCC(=O)OCc1ccccc1 (Cbz-Gly-Gly-OBn)
inactive: [7] 93 % of control | [3] 96 % of control | [8] 92 % of control | [4] 93 % of control | [9] 89 % of control | [5] 93 % of control
